The source made the active and inactive calls. No rule for the calls is given here.
Tested on: rodent lifetime carcinogenesis bioassay, tumor incidence TD50
Assay: carcinogenic potency in animals, long-term in vivo studies, CPDB compilation (AID 1745844)

O=C1OC(O)C(C(Cl)Cl)=C1Cl (stereo unspecified)
TD50 (rat, strain Wistar, females, in drinking water, site: adrenal gland, lesion: cortical adenoma, dosed 104 weeks, study length 104 weeks): 10.6 mg/kg/day
TD50 (rat, strain Wistar, females, in drinking water, site: all sites, lesion: lymphoma and leukemia, combined, dosed 104 weeks, study length 104 weeks): 41.5 mg/kg/day
TD50 (rat, strain Wistar, females, in drinking water, site: liver, lesion: cholangioadenoma/carcinoma, dosed 104 weeks, study length 104 weeks): 2.73 mg/kg/day
TD50 (rat, strain Wistar, females, in drinking water, site: liver, lesion: cholangiocarcinoma, dosed 104 weeks, study length 104 weeks): 122 mg/kg/day
TD50 (rat, strain Wistar, females, in drinking water, site: liver, lesion: cholangioma, dosed 104 weeks, study length 104 weeks): 2.73 mg/kg/day
TD50 (rat, strain Wistar, females, in drinking water, site: liver, lesion: hepatocellular adenoma, dosed 104 weeks, study length 104 weeks): 16 mg/kg/day
TD50 (rat, strain Wistar, females, in drinking water, site: liver, lesion: hepatocellular tumor, dosed 104 weeks, study length 104 weeks): 14.9 mg/kg/day
TD50 (rat, strain Wistar, females, in drinking water, site: mammary gland, lesion: adenocarcinoma, dosed 104 weeks, study length 104 weeks): 14 mg/kg/day
TD50 (rat, strain Wistar, females, in drinking water, site: mammary gland, lesion: fibroadenoma, dosed 104 weeks, study length 104 weeks): 5.13 mg/kg/day
TD50 (rat, strain Wistar, females, in drinking water, site: mammary gland, lesion: several types, types named in the paper, dosed 104 weeks, study length 104 weeks): 13 mg/kg/day
TD50 (rat, strain Wistar, females, in drinking water, site: thyroid gland, lesion: follicular-cell adenoma, dosed 104 weeks, study length 104 weeks): 0.645 mg/kg/day
TD50 (rat, strain Wistar, females, in drinking water, site: thyroid gland, lesion: follicular-cell carcinoma, dosed 104 weeks, study length 104 weeks): 5.2 mg/kg/day
TD50 (rat, strain Wistar, females, in drinking water, site: thyroid gland, lesion: several types, types named in the paper, dosed 104 weeks, study length 104 weeks): 0.741 mg/kg/day
TD50 (rat, strain Wistar, males, in drinking water, site: adrenal gland, lesion: cortical adenoma, dosed 104 weeks, study length 104 weeks): 9.68 mg/kg/day
TD50 (rat, strain Wistar, males, in drinking water, site: all sites, lesion: lymphoma and leukemia, combined, dosed 104 weeks, study length 104 weeks): 53.1 mg/kg/day
TD50 (rat, strain Wistar, males, in drinking water, site: liver, lesion: cholangioma, dosed 104 weeks, study length 104 weeks): 31.4 mg/kg/day
TD50 (rat, strain Wistar, males, in drinking water, site: liver, lesion: hepatocellular adenoma, dosed 104 weeks, study length 104 weeks): 24.4 mg/kg/day
TD50 (rat, strain Wistar, males, in drinking water, site: liver, lesion: hepatocellular carcinoma, dosed 104 weeks, study length 104 weeks): 53.4 mg/kg/day
TD50 (rat, strain Wistar, males, in drinking water, site: liver, lesion: hepatocellular tumor, dosed 104 weeks, study length 104 weeks): 17.7 mg/kg/day
TD50 (rat, strain Wistar, males, in drinking water, site: lung, lesion: alveolar/bronchiolar adenoma, dosed 104 weeks, study length 104 weeks): 23.4 mg/kg/day
TD50 (rat, strain Wistar, males, in drinking water, site: pancreatic islets, lesion: islet-cell adenoma, dosed 104 weeks, study length 104 weeks): 16 mg/kg/day
TD50 (rat, strain Wistar, males, in drinking water, site: pancreatic islets, lesion: several types, types named in the paper, dosed 104 weeks, study length 104 weeks): 16.6 mg/kg/day
TD50 (rat, strain Wistar, males, in drinking water, site: thyroid gland, lesion: follicular-cell adenoma, dosed 104 weeks, study length 104 weeks): 0.532 mg/kg/day
TD50 (rat, strain Wistar, males, in drinking water, site: thyroid gland, lesion: follicular-cell carcinoma, dosed 104 weeks, study length 104 weeks): 3.25 mg/kg/day
TD50 (rat, strain Wistar, males, in drinking water, site: thyroid gland, lesion: several types, types named in the paper, dosed 104 weeks, study length 104 weeks): 0.678 mg/kg/day

O=CC(O)C(O)C(O)C(O)CO (stereo unspecified)
carcinogen call (mouse, strain AP Alderly Park, females, in feed, site: any site (literature study), lesion: several types, types named in the paper, dosed 100 weeks, study length 100 weeks): negative (inactive)
TD50 (mouse, strain AP Alderly Park, females, in feed, site: liver, lesion: hepatoma, dosed 100 weeks, study length 100 weeks): 538000 mg/kg/day (inactive)
carcinogen call (mouse, strain AP Alderly Park, females, in feed, site: lung, lesion: adenoma, dosed 100 weeks, study length 100 weeks): negative (inactive)
TD50 (mouse, strain AP Alderly Park, males, in feed, site: any site (literature study), lesion: several types, types named in the paper, dosed 100 weeks, study length 100 weeks): 132000 mg/kg/day (inactive)
carcinogen call (mouse, strain AP Alderly Park, males, in feed, site: liver, lesion: hepatoma, dosed 100 weeks, study length 100 weeks): negative (inactive)
carcinogen call (mouse, strain AP Alderly Park, males, in feed, site: lung, lesion: adenoma, dosed 100 weeks, study length 100 weeks): negative (inactive)
TD50 (rat, strain AP Alderly Park, females, in feed, site: any site (literature study), lesion: several types, types named in the paper, dosed 104 weeks, study length 104 weeks): 7790 mg/kg/day (inactive)
carcinogen call (rat, strain AP Alderly Park, females, in feed, site: liver, lesion: one or several types, types not named, dosed 104 weeks, study length 104 weeks): negative (inactive)
carcinogen call (rat, strain AP Alderly Park, males, in feed, site: any site (literature study), lesion: several types, types named in the paper, dosed 104 weeks, study length 104 weeks): negative (inactive)
TD50 (rat, strain AP Alderly Park, males, in feed, site: liver, lesion: hepatoma, dosed 104 weeks, study length 104 weeks): 133000 mg/kg/day (inactive)

CC(O)CN(C)N=O (stereo unspecified)
carcinogen call (rat, strain F344/DuCrj, males, in drinking water, site: liver, lesion: one or several types, types not named, dosed 40 weeks, study length 78 weeks): negative (inactive)
TD50 (rat, strain Fischer 344, females, in drinking water, site: esophagus, lesion: carcinoma, dosed 30 weeks, study length 75 weeks): 0.408 mg/kg/day
TD50 (rat, strain Fischer 344, females, in drinking water, site: esophagus, lesion: several types, types named in the paper, dosed 30 weeks, study length 75 weeks): 0.105 mg/kg/day
TD50 (rat, strain Fischer 344, females, in drinking water, site: liver, lesion: hepatocellular carcinoma, dosed 30 weeks, study length 75 weeks): 0.895 mg/kg/day
TD50 (rat, strain Fischer 344, females, in drinking water, site: liver, lesion: neoplastic nodule, dosed 30 weeks, study length 75 weeks): 2.54 mg/kg/day
TD50 (rat, strain Fischer 344, females, in drinking water, site: liver, lesion: several types, types named in the paper, dosed 30 weeks, study length 75 weeks): 0.798 mg/kg/day
TD50 (rat, strain Fischer 344, females, in drinking water, site: lung, lesion: several types, types named in the paper, dosed 30 weeks, study length 75 weeks): 0.408 mg/kg/day
TD50 (rat, strain Fischer 344, females, in drinking water, site: nasal cavity, lesion: several types, types named in the paper, dosed 30 weeks, study length 75 weeks): 0.0486 mg/kg/day
TD50 (rat, strain Fischer 344, males, in drinking water, site: esophagus, lesion: several types, types named in the paper, dosed 30 weeks, study length 75 weeks): 0.17 mg/kg/day
TD50 (rat, strain Fischer 344, males, in drinking water, site: nasal cavity, lesion: several types, types named in the paper, dosed 30 weeks, study length 75 weeks): 0.0442 mg/kg/day

O=CCBr
carcinogen call (mouse, strain B6C3F1, females, in drinking water, site: any site (literature study), lesion: several types, types named in the paper, dosed 80 weeks, study length 80 weeks): negative (inactive)
TD50 (mouse, strain B6C3F1, females, in drinking water, site: forestomach, lesion: squamous-cell papilloma, dosed 80 weeks, study length 80 weeks): 2520 mg/kg/day (inactive)
TD50 (mouse, strain B6C3F1, females, in drinking water, site: liver, lesion: hemangioma, dosed 80 weeks, study length 80 weeks): 1020 mg/kg/day (inactive)
carcinogen call (mouse, strain B6C3F1, females, in drinking water, site: lung, lesion: one or several types, types not named, dosed 80 weeks, study length 80 weeks): negative (inactive)
carcinogen call (mouse, strain B6C3F1, males, in drinking water, site: any site (literature study), lesion: several types, types named in the paper, dosed 78 weeks, study length 78 weeks): negative (inactive)
TD50 (mouse, strain B6C3F1, males, in drinking water, site: forestomach, lesion: squamous-cell papilloma, dosed 78 weeks, study length 78 weeks): 1890 mg/kg/day (inactive)
carcinogen call (mouse, strain B6C3F1, males, in drinking water, site: liver, lesion: one or several types, types not named, dosed 78 weeks, study length 78 weeks): negative (inactive)
carcinogen call (mouse, strain B6C3F1, males, in drinking water, site: lung, lesion: papillary tumor, dosed 78 weeks, study length 78 weeks): negative (inactive)

O=C(O)C=Cc1ccc(O)c(O)c1
TD50 (mouse, strain B6C3F1, females, in feed, site: any site (literature study), lesion: one or several types, types not named, dosed 96 weeks, study length 96 weeks): 1900 mg/kg/day
TD50 (mouse, strain B6C3F1, females, in feed, site: forestomach, lesion: squamous-cell carcinoma, dosed 96 weeks, study length 96 weeks): 43300 mg/kg/day
TD50 (mouse, strain B6C3F1, females, in feed, site: kidney, lesion: tubular-cell adenoma, dosed 96 weeks, study length 96 weeks): 4700 mg/kg/day
TD50 (mouse, strain B6C3F1, males, in feed, site: any site (literature study), lesion: one or several types, types not named, dosed 96 weeks, study length 96 weeks): 3210 mg/kg/day
TD50 (mouse, strain B6C3F1, males, in feed, site: forestomach, lesion: papilloma, dosed 96 weeks, study length 96 weeks): 9790 mg/kg/day
TD50 (mouse, strain B6C3F1, males, in feed, site: forestomach, lesion: several types, types named in the paper, dosed 96 weeks, study length 96 weeks): 5270 mg/kg/day
TD50 (mouse, strain B6C3F1, males, in feed, site: forestomach, lesion: squamous-cell carcinoma, dosed 96 weeks, study length 96 weeks): 13300 mg/kg/day
TD50 (mouse, strain B6C3F1, males, in feed, site: lung, lesion: alveolar-cell adenoma, dosed 96 weeks, study length 96 weeks): 6110 mg/kg/day
TD50 (mouse, strain B6C3F1, males, in feed, site: lung, lesion: alveolar-cell carcinoma, dosed 96 weeks, study length 96 weeks): 41300 mg/kg/day
TD50 (mouse, strain B6C3F1, males, in feed, site: lung, lesion: several types, types named in the paper, dosed 96 weeks, study length 96 weeks): 5120 mg/kg/day
TD50 (rat, strain F344/DuCrj, females, in feed, site: any site (literature study), lesion: one or several types, types not named, dosed 104 weeks, study length 104 weeks): 312 mg/kg/day
TD50 (rat, strain F344/DuCrj, females, in feed, site: forestomach, lesion: papilloma, dosed 104 weeks, study length 104 weeks): 426 mg/kg/day
TD50 (rat, strain F344/DuCrj, females, in feed, site: forestomach, lesion: several types, types named in the paper, dosed 104 weeks, study length 104 weeks): 298 mg/kg/day
TD50 (rat, strain F344/DuCrj, females, in feed, site: forestomach, lesion: squamous-cell carcinoma, dosed 104 weeks, study length 104 weeks): 989 mg/kg/day
TD50 (rat, strain F344/DuCrj, males, in feed, site: forestomach, lesion: papilloma, dosed 104 weeks, study length 104 weeks): 377 mg/kg/day
TD50 (rat, strain F344/DuCrj, males, in feed, site: forestomach, lesion: several types, types named in the paper, dosed 104 weeks, study length 104 weeks): 272 mg/kg/day
TD50 (rat, strain F344/DuCrj, males, in feed, site: forestomach, lesion: squamous-cell carcinoma, dosed 104 weeks, study length 104 weeks): 656 mg/kg/day
TD50 (rat, strain F344/DuCrj, males, in feed, site: forestomach, lesion: squamous-cell papilloma, dosed 51 weeks, study length 52 weeks): 217 mg/kg/day
TD50 (rat, strain F344/DuCrj, males, in feed, site: forestomach, lesion: squamous-cell papilloma, dosed 60 weeks, study length 60 weeks): 542 mg/kg/day
TD50 (rat, strain F344/DuCrj, males, in feed, site: kidney, lesion: tubular-cell adenoma, dosed 104 weeks, study length 104 weeks): 3830 mg/kg/day

O=C(NCC1CCCCN1)c1cc(OCC(F)(F)F)ccc1OCC(F)(F)F (stereo unspecified)
carcinogen call (mouse, strain Charles River CD1, females, in feed, site: liver, lesion: adenoma, dosed 78 weeks, study length 78 weeks): negative (inactive)
TD50 (mouse, strain Charles River CD1, females, in feed, site: lung, lesion: adenoma, dosed 78 weeks, study length 78 weeks): 938 mg/kg/day (inactive)
carcinogen call (mouse, strain Charles River CD1, males, in feed, site: liver, lesion: adenoma, dosed 78 weeks, study length 78 weeks): negative (inactive)
carcinogen call (mouse, strain Charles River CD1, males, in feed, site: liver, lesion: hepatocellular carcinoma, dosed 78 weeks, study length 78 weeks): negative (inactive)
carcinogen call (mouse, strain Charles River CD1, males, in feed, site: lung, lesion: adenoma, dosed 78 weeks, study length 78 weeks): negative (inactive)
carcinogen call (rat, strain Charles River Crl:COBS(WI)BR, females, in feed, site: liver, lesion: adenoma, dosed 104 weeks, study length 104 weeks): negative (inactive)
TD50 (rat, strain Charles River Crl:COBS(WI)BR, males, in feed, site: liver, lesion: adenoma, dosed 104 weeks, study length 104 weeks): 3580 mg/kg/day (inactive)
TD50 (rat, strain Charles River Crl:COBS(WI)BR, males, in feed, site: testis, lesion: interstitial-cell adenoma, dosed 104 weeks, study length 104 weeks): 79.1 mg/kg/day (inactive)

— PubChem BioAssay AID1745844 (Carcinogenic Potency Database (CPDB), 2022)
